{"source": "patent US20120107391A1", "about": "“THERAPY OF PLATINUM-RESISTANT CANCER” (Genentech, Inc., priority 2004, published 2012)", "key": {"[1]": {"tested_on": "HRG stimulation of p180 tyrosine phosphorylation in MCF7 cells", "test": "Inhibition of HRG-stimulated p180 tyrosine phosphorylation in MCF7 cells (antiphosphotyrosine immunoblot, reflectance densitometry)", "assay_type": "cell-based, human", "settings": "MCF7, 0.2 nM rHRGβ1", "experimental": "MCF7 cells were seeded in 24-well plates (1×10^5 cells/well) and grown to about 85% confluency for two days.\nMCF7 cells were plated in 24-well plates and monoclonal antibodies to HER2 were added to each well and incubated for 30 minutes at room temperature; then rHRGβ1177-244 was added to each well to a final concentration of 0.2 nM, and the incubation was continued for 8 minutes. Media was carefully aspirated from each well, and reactions were stopped by the addition of 100 μl of SDS sample buffer (5% SDS, 25 mM DTT, and 25 mM Tris-HCl, pH 6.8). Each sample (25 μl) was electrophoresed on a 4-12% gradient gel (Novex) and then electrophoretically transferred to polyvinylidene difluoride membrane. Antiphosphotyrosine (4G10, from UBI, used at 1 μg/ml) immunoblots were developed, and the intensity of the predominant reactive band at Mr ˜180,000 was quantified by reflectance densitometry, as described previously (Holmes et al. Science 256:1205-1210 (1992); Sliwkowski et al. J. Biol. Chem. 269:14661-14665 (1994))."}, "MDA-MB-175 cells": {"tested_on": "MDA-MB-175 cells", "test": "Growth inhibition of MDA-MB-175 cells, crystal violet staining, 4 days", "assay_type": "cell-based", "settings": "10 μg/mL", "method": "Experiment was carried out in medium containing 1% serum. HER2 antibodies or medium alone were added and the cells were incubated for 2 hours at 37° C. Subsequently rHRGβ1 (1 nM) or medium alone were added and the cells were incubated for 4 days. Monolayers were washed and stained/fixed with 0.5% crystal violet. To determine cell proliferation the absorbance was measured at 540 nm.\nHER2 levels in MDA-MB-175 cells are 4-6 times higher than the level found in normal breast epithelial cells and the HER2-HER4 receptor is constitutively tyrosine phosphorylated in MDA-MB-175 cells. […] Inhibition of cell proliferation by 4D5 is dependent on the HER2 expression level (Lewis et al. Cancer Immunol. Immunother. 37:255-263 (1993)). […] However this effect could be overcome by exogenous HRG."}, "SK-BR-3 cells": {"tested_on": "SK-BR-3 cells", "test": "Growth inhibition of SK-BR-3 cells, crystal violet staining, 4 days, with or without rHRGβ1", "assay_type": "cell-based, human", "settings": "FIG. 4B"}, "[2]": {"tested_on": "mitogen-activated protein kinase (MAPK) activation in MCF7 cells", "test": "EGF, TGF-α or HRG mediated activation of MAPK in MCF7 cells (Western blot)", "assay_type": "cell-based, human", "settings": "200 nM antibody, 1 nM EGF, 1 nM TGF-α or 0.2 nM HRG", "method": "Many growth factor receptors signal through the mitogen-activated protein kinase (MAPK) pathway. These dual specificity kinases are one of the key endpoints in signal transduction pathways that ultimately triggers cancer cells to divide. […] MCF7 cells (10^5 cells/well) were plated in serum containing media in 12-well cell culture plates. The next day, the cell media was removed and fresh media containing 0.1% serum was added to each well. This procedure was then repeated the following day and prior to assay the media was replaced with serum-free binding buffer (Jones et al. J. Biol. Chem. 273:11667-74 (1998); and Schaefer et al. J. Biol. Chem. 274:859-66 (1999)). […] Cells were then treated with 1 nM EGF, 1 nM TGF-α or 0.2 nM HRG for 15 minutes. The reaction was stopped by aspirating the cell medium and then adding 0.2 mL SDS-PAGE sample buffer containing 1% DTT. MAPK activation was assessed by Western blotting using an anti-active MAPK antibody (Promega) as described previously (Jones et al. J. Biol. Chem. 273:11667-74 (1998))."}, "[3]": {"tested_on": "Akt activation in MCF7 breast cancer cells", "settings": "cited from earlier work"}, "[4]": {"tested_on": "platinum-resistant ovarian cancer", "settings": "patients with platinum-resistant disease; cited from earlier work"}, "[5]": {"settings": "cited from earlier work"}, "advanced ovarian cancer": {"tested_on": "advanced ovarian cancer", "settings": "one of 3 subjects with advanced ovarian cancer; cited from earlier work"}}, "note": "Where a name gives a salt, the structure may show the parent alone.", "data": [{"compound": "2C4: Murine monoclonal antibody binding the extracellular domain of HER2, ATCC HB-12697 [Mutant 2C4]", "values": [{"measurement": "generation of HRG-induced tyrosine phosphorylation signal at Mr 180,000", "setting": "[1]", "value": "significantly inhibited"}, {"measurement": "growth inhibitory effect on MDA-MB-175 cells", "setting": "MDA-MB-175 cells", "value": "strong growth inhibitory effect"}, {"measurement": "inhibitory effect on HER2 overexpressing cell line SK-BR-3", "setting": "SK-BR-3 cells", "value": "no inhibitory effect"}, {"measurement": "block of EGF, TGF-α and HRG mediated activation of MAPK", "setting": "[2]", "value": "significantly blocks"}, {"measurement": "basal level of Akt activation", "setting": "[3]; MCF7, absence of heregulin addition", "value": "further reduced"}, {"measurement": "heregulin-mediated Akt activation", "setting": "[3]; MCF7, Agus et al. 2002", "value": "inhibits"}]}, {"compound": "Nc1ccn([C@@H]2O[C@H](CO)[C@@H](O)C2(F)F)c(=O)n1", "note": "[Gemcitabine, 2′-deoxy-2′,2′-difluorocytidine monohydrochloride (b-isomer)]", "values": [{"measurement": "partial response rate", "setting": "[4]", "value": 16, "unit": "%"}, {"measurement": "toxicity when combined with other chemotherapeutic agents", "setting": "[5]; combined with taxanes, anthracyclines, platinums", "value": "without any significant increases or unexpected toxicities"}, {"measurement": "combined incidence of nausea and vomiting", "setting": "[5]; single agent", "value": 69, "unit": "%"}, {"measurement": "incidence of anemia", "setting": "[5]; single agent", "value": 68, "unit": "%"}, {"measurement": "incidence of diarrhea", "setting": "[5]; single agent", "value": 19, "unit": "%"}, {"measurement": "incidence of neutropenia", "setting": "[5]; single agent", "value": 63, "unit": "%"}, {"measurement": "incidence of rash", "setting": "[5]; single agent", "value": 30, "unit": "%"}, {"measurement": "nausea and vomiting, grade III incidence", "setting": "[5]; single agent", "value": 13, "unit": "%"}, {"measurement": "nausea and vomiting, grade IV incidence", "setting": "[5]; single agent", "value": 1, "unit": "%"}, {"measurement": "rash, grade III incidence", "setting": "[5]; single agent", "value": 1, "unit": "%"}]}, {"compound": "CC[C@@]1(O)C(=O)OCc2c1cc1n(c2=O)Cc2cc3c(CN(C)C)c(O)ccc3nc2-1", "note": "[Topotecan]", "values": [{"measurement": "partial response rate", "setting": "[4]", "value": 6, "unit": "%"}]}, {"compound": "Pertuzumab: Antibody with light and heavy chain SEQ ID NOS. 16 and 17; humanized version 574 variable domains with human IgG1 constant region", "values": [{"measurement": "response", "setting": "advanced ovarian cancer", "value": "durable partial response"}]}]}
